# Laboratory results reported in US10966978B2, “Dose and regimen for HDM2-p53 interaction inhibitors” (Novartis AG, priority 2016, dated 2021).
# Where two headings read alike, the source gives them in different places.
# System: patients with advanced TP53 wild-type (WT) leukemias
smiles,measurement,setting,value
"COc1ncc(-c2nc3c(n2C(C)C)[C@H](c2ccc(Cl)cc2)N(c2cc(Cl)cn(C)c2=O)C3=O)c(OC)n1 [HDM201, (S)-5-(5-Chloro-1-methyl-2-oxo-1,2-dihydro-pyridin-3-yl)-6-(4-chloro-phenyl)-2-(2,4-dimethoxy-pyrimidin-5-yl)-1-isopropyl-5,6-dihydro-1H-pyrrolo[3,4-d]imidazol-4-one]",AE: Blood Creatinine Increased,"Regimen 2A N = 7, All Grades",1 (14.3) n (%)
same,AE: Blood Phosphorus Increased,"Regimen 2A N = 7, All Grades",0 n (%)
same,AE: Blood Uric Acid Increased,"Regimen 2A N = 7, All Grades",0 n (%)
same,AE: Bone Marrow Failure,"Regimen 2A N = 7, All Grades",1 (14.3) n (%)
same,AE: C-Reactive Protein Increased,"Regimen 2A N = 7, All Grades",1 (14.3) n (%)
same,AE: Cardiac Failure,"Regimen 2A N = 7, All Grades",0 n (%)
same,AE: Cellulitis,"Regimen 2A N = 7, All Grades",0 n (%)
same,AE: Chronic Graft Versus Host Disease,"Regimen 2A N = 7, All Grades",0 n (%)
same,AE: Conjunctival Haemorrhage,"Regimen 2A N = 7, All Grades",0 n (%)
same,AE: Cough,"Regimen 2A N = 7, All Grades",0 n (%)
same,AE: Cystitis Viral,"Regimen 2A N = 7, All Grades",0 n (%)
same,AE: Cytomegalovirus Infection,"Regimen 2A N = 7, All Grades",1 (14.3) n (%)
same,AE: Decreased Appetite,"Regimen 2A N = 7, All Grades",1 (14.3) n (%)
same,AE: Diarrhoea,"Regimen 2A N = 7, All Grades",0 n (%)
same,AE: Dyspepsia,"Regimen 2A N = 7, All Grades",1 (14.3) n (%)
same,AE: Dyspnoea,"Regimen 2A N = 7, All Grades",0 n (%)
same,AE: Epistaxis,"Regimen 2A N = 7, All Grades",0 n (%)
same,AE: Fatigue,"Regimen 2A N = 7, All Grades",0 n (%)
same,AE: Febrile Neutropenia,"Regimen 2A N = 7, All Grades",2 (28.6) n (%)
same,AE: Gamma-Glutamyltransferase Increased,"Regimen 2A N = 7, All Grades",0 n (%)
same,AE: General Physical Health Deterioration,"Regimen 2A N = 7, All Grades",0 n (%)
same,AE: Gingival Bleeding,"Regimen 2A N = 7, All Grades",0 n (%)
same,AE: Graft Versus Host Disease,"Regimen 2A N = 7, All Grades",0 n (%)
same,AE: Haemoglobin Decreased,"Regimen 2A N = 7, All Grades",0 n (%)
same,AE: Headache,"Regimen 2A N = 7, All Grades",0 n (%)
same,AE: Hyperbilirubinaemia,"Regimen 2A N = 7, All Grades",1 (14.3) n (%)
same,AE: Hyperglycaemia,"Regimen 2A N = 7, All Grades",0 n (%)
same,AE: Hyperkalaemia,"Regimen 2A N = 7, All Grades",0 n (%)
same,AE: Hyperphosphataemia,"Regimen 2A N = 7, All Grades",0 n (%)
same,AE: Hyperuricaemia,"Regimen 2A N = 7, All Grades",1 (14.3) n (%)
same,AE: Hypoalbuminaemia,"Regimen 2A N = 7, All Grades",0 n (%)
same,AE: Hypocalcaemia,"Regimen 2A N = 7, All Grades",0 n (%)
same,AE: Hypokalaemia,"Regimen 2A N = 7, All Grades",0 n (%)
same,AE: Hypomagnesaemia,"Regimen 2A N = 7, All Grades",0 n (%)
same,AE: Hyponatraemia,"Regimen 2A N = 7, All Grades",0 n (%)
same,AE: Hypophosphataemia,"Regimen 2A N = 7, All Grades",0 n (%)
same,AE: Hypotension,"Regimen 2A N = 7, All Grades",0 n (%)
same,AE: Infection,"Regimen 2A N = 7, All Grades",0 n (%)
same,AE: Infective Glossitis,"Regimen 2A N = 7, All Grades",0 n (%)
same,AE: Iron Overload,"Regimen 2A N = 7, All Grades",0 n (%)
same,AE: Leukopenia,"Regimen 2A N = 7, All Grades",0 n (%)
same,AE: Lip Oedema,"Regimen 2A N = 7, All Grades",0 n (%)
same,AE: Lipase Increased,"Regimen 2A N = 7, All Grades",0 n (%)
same,AE: Macular Oedema,"Regimen 2A N = 7, All Grades",0 n (%)
same,AE: Malaise,"Regimen 2A N = 7, All Grades",1 (14.3) n (%)
same,AE: Mouth Haemorrhage,"Regimen 2A N = 7, All Grades",0 n (%)
same,AE: Nausea,"Regimen 2A N = 7, All Grades",3 (42.9) n (%)
same,AE: Neutropenia/Neutrophil Count Decreased,"Regimen 2A N = 7, All Grades",1 (14.3) n (%)
same,AE: Oedema,"Regimen 2A N = 7, All Grades",0 n (%)
same,AE: Oedema Peripheral,"Regimen 2A N = 7, All Grades",0 n (%)
same,AE: Oral Disorder,"Regimen 2A N = 7, All Grades",0 n (%)
same,AE: Pain In Extremity,"Regimen 2A N = 7, All Grades",0 n (%)
same,AE: Pancytopenia,"Regimen 2A N = 7, All Grades",0 n (%)
same,AE: Pneumonia,"Regimen 2A N = 7, All Grades",0 n (%)
same,AE: Pollakiuria,"Regimen 2A N = 7, All Grades",0 n (%)
same,AE: Pyrexia,"Regimen 2A N = 7, All Grades",1 (14.3) n (%)
same,AE: Rash,"Regimen 2A N = 7, All Grades",0 n (%)
same,AE: Rash Erythematous,"Regimen 2A N = 7, All Grades",0 n (%)
same,AE: Rash Papular,"Regimen 2A N = 7, All Grades",0 n (%)
same,AE: Rectal Haemorrhage,"Regimen 2A N = 7, All Grades",0 n (%)
same,AE: Renal Failure,"Regimen 2A N = 7, All Grades",0 n (%)
same,AE: Skin Exfoliation,"Regimen 2A N = 7, All Grades",0 n (%)
same,AE: Stomatitis,"Regimen 2A N = 7, All Grades",0 n (%)
same,AE: Subarachnoid Haemorrhage,"Regimen 2A N = 7, All Grades",0 n (%)
same,AE: Thrombocytopenia/Platelet Count Decreased,"Regimen 2A N = 7, All Grades",2 (28.6) n (%)
same,AE: Total,"Regimen 2A N = 7, All Grades",5 (71.4) n (%)
same,AE: Tumour Lysis Syndrome,"Regimen 2A N = 7, All Grades",1 (14.3) n (%)
same,AE: Vomiting,"Regimen 2A N = 7, All Grades",1 (14.3) n (%)
same,AE: Weight Decreased,"Regimen 2A N = 7, All Grades",0 n (%)
same,AE: White Blood Cell Count Decreased,"Regimen 2A N = 7, All Grades",1 (14.3) n (%)
same,AE: Abdominal Discomfort,"Regimen 2A N = 7, Grade 3/4",0 n (%)
same,AE: Abdominal Pain,"Regimen 2A N = 7, Grade 3/4",0 n (%)
same,AE: Abdominal Pain Upper,"Regimen 2A N = 7, Grade 3/4",0 n (%)
same,AE: Acute Kidney Injury,"Regimen 2A N = 7, Grade 3/4",0 n (%)
same,AE: Amylase Increased,"Regimen 2A N = 7, Grade 3/4",0 n (%)
same,AE: Anaemia,"Regimen 2A N = 7, Grade 3/4",2 (28.6) n (%)
same,AE: Arthralgia,"Regimen 2A N = 7, Grade 3/4",0 n (%)
same,AE: Asthenia,"Regimen 2A N = 7, Grade 3/4",0 n (%)
same,AE: Atrial Fibrillation,"Regimen 2A N = 7, Grade 3/4",0 n (%)
same,AE: Atypical Pneumonia,"Regimen 2A N = 7, Grade 3/4",0 n (%)
same,AE: Balanitis Candida,"Regimen 2A N = 7, Grade 3/4",0 n (%)
same,AE: Blood Alkaline Phosphatase Increased,"Regimen 2A N = 7, Grade 3/4",0 n (%)
same,AE: Blood Bilirubin Increased,"Regimen 2A N = 7, Grade 3/4",0 n (%)
same,AE: Blood Creatinine Increased,"Regimen 2A N = 7, Grade 3/4",0 n (%)
same,AE: Blood Phosphorus Increased,"Regimen 2A N = 7, Grade 3/4",0 n (%)
same,AE: Blood Uric Acid Increased,"Regimen 2A N = 7, Grade 3/4",0 n (%)
same,AE: Bone Marrow Failure,"Regimen 2A N = 7, Grade 3/4",1 (14.3) n (%)
same,AE: C-Reactive Protein Increased,"Regimen 2A N = 7, Grade 3/4",1 (14.3) n (%)
same,AE: Cardiac Failure,"Regimen 2A N = 7, Grade 3/4",0 n (%)
same,AE: Cellulitis,"Regimen 2A N = 7, Grade 3/4",0 n (%)
same,AE: Chronic Graft Versus Host Disease,"Regimen 2A N = 7, Grade 3/4",0 n (%)
same,AE: Conjunctival Haemorrhage,"Regimen 2A N = 7, Grade 3/4",0 n (%)
same,AE: Cough,"Regimen 2A N = 7, Grade 3/4",0 n (%)
same,AE: Cystitis Viral,"Regimen 2A N = 7, Grade 3/4",0 n (%)
same,AE: Cytomegalovirus Infection,"Regimen 2A N = 7, Grade 3/4",0 n (%)
same,AE: Decreased Appetite,"Regimen 2A N = 7, Grade 3/4",0 n (%)
same,AE: Diarrhoea,"Regimen 2A N = 7, Grade 3/4",0 n (%)
same,AE: Dyspepsia,"Regimen 2A N = 7, Grade 3/4",0 n (%)
same,AE: Dyspnoea,"Regimen 2A N = 7, Grade 3/4",0 n (%)
same,AE: Epistaxis,"Regimen 2A N = 7, Grade 3/4",0 n (%)
same,AE: Fatigue,"Regimen 2A N = 7, Grade 3/4",0 n (%)
same,AE: Febrile Neutropenia,"Regimen 2A N = 7, Grade 3/4",2 (28.6) n (%)
same,AE: Gamma-Glutamyltransferase Increased,"Regimen 2A N = 7, Grade 3/4",0 n (%)
same,AE: General Physical Health Deterioration,"Regimen 2A N = 7, Grade 3/4",0 n (%)
same,AE: Gingival Bleeding,"Regimen 2A N = 7, Grade 3/4",0 n (%)
same,AE: Graft Versus Host Disease,"Regimen 2A N = 7, Grade 3/4",0 n (%)
